Our source for the microsomal CLint and phospholipidosis judgement values is patent US8653304B2, “2,3-dihydro-1H-indene-2-yl urea derivative and pharmaceutical application of same” (Toray Industries, Inc., priority 2009, dated 2014).

A word on the microsomal CLint: it is a measure of how fast metabolising enzymes remove a compound, apart from limits set by blood flow. Low readings indicate greater metabolic stability, high ones faster metabolism.

Each structure is given as a SMILES string. Structures can show the parent of a compound that is named as a salt.

For data set [1], the system named is Human CYP (Cytochrome P450). The data set is described as follows: Metabolic stability in human CYP (human liver microsomes). Conditions: human liver microsomes 0.5 mg/mL, NADPH, 37° C., comparative control compounds 5 μM. It is filed as in vitro ADME. The procedure:
Each test compound was mixed at a concentration of 2 μM with a phosphate buffer solution containing Human liver microsomes (Xenotech) in an amount of 0.5 mg/mL. Thereafter, NADPH was added thereto, and the obtained mixture was allowed to react at 37° C. for up to 30 minutes. The reaction was terminated by adding acetonitrile, and then the resultant was centrifuged for 10 minutes at 4° C. to collect a supernatant. The supernatant was pretreated by methanol extraction method, and the concentration of the compound was analyzed by LC/MS/MS (ESI positive mode). The compound remaining rate was calculated from the obtained concentration of the compound.
In general terms: Microsomes from liver hold many membrane-bound enzymes, among them those of drug oxidation.

Data set [2] concerns U937 cells. The data set is described as follows: Ability to induce drug-induced phospholipidosis (U937, Nile red, flow cytometer). It is filed as cell-based, human. The conditions noted are these: 48 hours, 20 μM, fluorescence intensity compared to valproic acid 300 μM. On the procedure: The evaluation of Comparative Compound 4c, which was a comparative control compound, was carried out by a method partially modified from the method described in Cell Biology and Toxicology (2003, Vol. 19, pp. 161-176).
Each test compound was mixed with U937 cells, which are a cell line derived from human monocytes, and the cells were cultured in the presence of 5% CO2 at 37° C. for 48 hours. The cell suspension after the culturing was replaced with a PBS solution containing Nile red (Invitrogen) which is a phospholipid staining solution, and the resulting mixture was allowed to react in the dark at room temperature for 10 minutes. After centrifugal washing with PBS solution, the fluorescence intensity was measured with a flow cytometer (Becton Dickinson) (Excitation Wavelength: 488 nm, Detection Region: 515-545 nm). As a negative control substance, valproic acid (300 μM) was used. […] Each test compound was dissolved in DMSO before use, and the resulting solution was added to the cells such that the final concentration of DMSO was 1%.
A general note: In flow cytometry, cells or beads pass a laser one at a time.

`Cc1ccc(-n2nc(C(C)(C)C)cc2NC(=O)Nc2ccc(OCCN3CCOCC3)c3ccccc23)cc1` [Comparative Compound 4c, 1-(3-tert-butyl-1-p-tolyl-1H-pyrazol-5-yl)-3-(4-(2-morpholinoethoxy)naphthalen-1-yl)urea.hydrochloride]: the microsomal CLint at 5 μM in data set [1] amounted to 321 µL/min/mg. Moreover, the phospholipidosis judgement entry in data set [2] is recorded as “positive”.
